Measurements: patent US8022206B2 (OSI Pharmaceuticals, LLC, priority 2008, dated 2011)

Experiments:
[1] = molecular target: RON (human) (Homo sapiens, UniProt Q04912); test: RON (human) AlphaScreen kinase assay, Km of ATP; format: biochemical; settings: AlphaScreen, Km of ATP; read-out: RON biochemical IC50
Description: (§1) Someone skilled in the art will appreciate that a variety of assay formats may be used to determine the activity of the compounds of this invention. For example, AlphaScreen (Amplified Luminescent Proximity Homogeneous Assay) technology was used with the kinases described below. Assay ATP concentrations for individual kinases are included in the text.
Desired compound is added in a final concentration of 1% DMSO with control being vehicle of DMSO alone. […] Enzyme is added to initiate the reaction and incubated for 30 min at RT. In subdued light, appropriate amount of PT66 donor and acceptor beads (diluted 1:260 from manufacturer's provision in a 25 mM Tris HCl (pH=7.5), 200 mM NaCl, 100 mM EDTA, 0.3% BSA buffer) are added to the wells. The plates, incubated for 1 h, are read on an AlphaQuest plate reader.

[2] = molecular target: MET (human) (Homo sapiens, UniProt P08581); test: MET (human) AlphaScreen kinase assay, Km of ATP; format: biochemical; settings: AlphaScreen, Km of ATP; read-out: Met biochemical IC50
Sequence of MET (human) (P08581 25-1390): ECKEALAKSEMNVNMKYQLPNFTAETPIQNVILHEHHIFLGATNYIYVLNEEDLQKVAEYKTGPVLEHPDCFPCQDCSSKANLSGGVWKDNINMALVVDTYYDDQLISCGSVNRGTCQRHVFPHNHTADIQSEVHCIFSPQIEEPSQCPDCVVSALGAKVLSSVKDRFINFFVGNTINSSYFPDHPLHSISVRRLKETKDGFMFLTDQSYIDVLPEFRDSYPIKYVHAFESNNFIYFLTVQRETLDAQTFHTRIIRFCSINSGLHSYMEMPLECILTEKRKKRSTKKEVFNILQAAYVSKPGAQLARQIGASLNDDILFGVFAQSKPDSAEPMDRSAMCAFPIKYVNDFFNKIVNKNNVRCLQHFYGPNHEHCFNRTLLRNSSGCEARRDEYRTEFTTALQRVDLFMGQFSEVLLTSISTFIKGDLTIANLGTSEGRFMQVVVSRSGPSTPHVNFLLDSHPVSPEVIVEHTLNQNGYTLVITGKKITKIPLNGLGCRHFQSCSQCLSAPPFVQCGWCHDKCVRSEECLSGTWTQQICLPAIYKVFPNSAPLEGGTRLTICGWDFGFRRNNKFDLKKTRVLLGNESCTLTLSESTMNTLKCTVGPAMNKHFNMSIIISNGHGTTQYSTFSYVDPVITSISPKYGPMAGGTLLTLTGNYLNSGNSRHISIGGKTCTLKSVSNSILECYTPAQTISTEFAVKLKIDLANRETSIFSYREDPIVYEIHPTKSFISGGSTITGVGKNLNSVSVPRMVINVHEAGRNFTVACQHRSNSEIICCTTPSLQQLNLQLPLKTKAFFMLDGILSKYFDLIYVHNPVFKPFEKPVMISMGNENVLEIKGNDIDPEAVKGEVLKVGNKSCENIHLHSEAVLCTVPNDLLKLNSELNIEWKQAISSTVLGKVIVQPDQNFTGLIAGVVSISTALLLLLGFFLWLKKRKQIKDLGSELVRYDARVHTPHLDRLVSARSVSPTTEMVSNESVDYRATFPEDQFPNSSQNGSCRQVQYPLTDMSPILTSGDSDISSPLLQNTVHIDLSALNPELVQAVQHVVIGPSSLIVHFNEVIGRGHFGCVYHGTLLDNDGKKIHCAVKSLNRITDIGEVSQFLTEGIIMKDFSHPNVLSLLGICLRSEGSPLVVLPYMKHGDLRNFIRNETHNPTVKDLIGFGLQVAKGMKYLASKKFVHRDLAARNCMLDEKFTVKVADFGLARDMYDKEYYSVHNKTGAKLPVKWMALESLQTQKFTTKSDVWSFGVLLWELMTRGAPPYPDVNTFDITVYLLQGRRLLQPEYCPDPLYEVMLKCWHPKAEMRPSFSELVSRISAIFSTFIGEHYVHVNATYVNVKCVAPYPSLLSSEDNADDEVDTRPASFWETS
Description: as §1
Desired compound is added in a final concentration of 1% DMSO with control being vehicle of DMSO alone. MET is diluted to the optimized concentration (optimized on a lot-by-lot basis) in an enzyme diluent buffer (50 mM Tris pH=7.4, 1% glycerol, 0.03% Brij35, 0.24 mM EGTA, 1 mM DTT, and 0.003% BSA). Enzyme is added to initiate the reaction and incubated for 60 min at RT. In subdued light, appropriate amount of PT66 donor and acceptor beads (diluted 1:260 from manufacturer's provision in a 25 mM Tris HCl (pH=7.5), 400 mM NaCl, 100 mM EDTA, 0.3% BSA buffer) are added to the wells. The plates, incubated for 1 h, are read on an AlphaQuest plate reader

Sequence of RON (human) (Q04912 25-1400): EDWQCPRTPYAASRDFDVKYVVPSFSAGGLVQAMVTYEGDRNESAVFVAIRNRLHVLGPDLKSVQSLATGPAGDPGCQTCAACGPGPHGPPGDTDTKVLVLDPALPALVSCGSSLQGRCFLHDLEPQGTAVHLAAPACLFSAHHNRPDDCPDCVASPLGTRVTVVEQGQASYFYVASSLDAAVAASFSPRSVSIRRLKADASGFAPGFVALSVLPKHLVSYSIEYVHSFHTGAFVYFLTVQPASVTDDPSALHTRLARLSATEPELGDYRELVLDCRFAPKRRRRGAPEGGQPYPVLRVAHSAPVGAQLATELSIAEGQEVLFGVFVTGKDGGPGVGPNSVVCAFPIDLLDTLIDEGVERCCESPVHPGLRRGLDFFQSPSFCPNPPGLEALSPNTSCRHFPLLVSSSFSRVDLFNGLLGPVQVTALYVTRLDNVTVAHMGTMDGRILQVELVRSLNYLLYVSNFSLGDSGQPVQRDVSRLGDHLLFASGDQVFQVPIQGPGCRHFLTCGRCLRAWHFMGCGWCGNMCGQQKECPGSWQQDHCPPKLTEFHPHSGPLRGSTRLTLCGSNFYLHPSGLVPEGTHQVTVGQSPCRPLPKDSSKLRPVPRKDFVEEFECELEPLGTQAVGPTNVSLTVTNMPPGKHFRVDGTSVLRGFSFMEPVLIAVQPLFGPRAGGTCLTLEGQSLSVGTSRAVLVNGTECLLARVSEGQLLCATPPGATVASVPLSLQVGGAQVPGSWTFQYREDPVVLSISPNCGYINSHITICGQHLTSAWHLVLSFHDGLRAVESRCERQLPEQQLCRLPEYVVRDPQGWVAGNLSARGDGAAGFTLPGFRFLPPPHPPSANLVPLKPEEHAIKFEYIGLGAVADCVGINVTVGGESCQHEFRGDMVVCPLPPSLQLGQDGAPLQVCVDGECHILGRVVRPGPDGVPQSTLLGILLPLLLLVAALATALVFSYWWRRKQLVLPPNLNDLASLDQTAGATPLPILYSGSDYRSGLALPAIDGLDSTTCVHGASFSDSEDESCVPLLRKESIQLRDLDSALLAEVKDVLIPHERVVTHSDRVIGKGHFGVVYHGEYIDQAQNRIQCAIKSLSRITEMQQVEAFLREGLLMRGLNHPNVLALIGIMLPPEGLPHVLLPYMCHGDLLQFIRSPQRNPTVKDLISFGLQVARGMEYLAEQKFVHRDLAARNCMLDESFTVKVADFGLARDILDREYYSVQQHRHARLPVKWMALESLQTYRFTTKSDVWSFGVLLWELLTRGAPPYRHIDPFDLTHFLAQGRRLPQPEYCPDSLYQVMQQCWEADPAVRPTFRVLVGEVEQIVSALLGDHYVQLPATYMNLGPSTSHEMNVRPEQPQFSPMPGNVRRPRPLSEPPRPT

| Structure (SMILES) | IC50 [1] | IC50 [2] |
| --- | --- | --- |
| C[C@@H](Oc1c(N)ncc2c(C3=CCN(C(=O)CN4CCCC4)CC3)coc12)c1c(Cl)ccc(F)c1Cl [Example 13, 1-(4-{6-Amino-7-[(R)-1-(2,6-dichloro-3-fluorophenyl)-ethoxy]-furo[3,2-c]pyridin-3-yl}-3,6-dihydro-2H-pyridin-1-yl)-2-pyrrolidin-1-ylethanone] | < 500 nM | < 500 nM |
| C[C@@H](Oc1c(N)ncc2c(C3=CCN(C(=O)N4CCN(C(C)(C)C)CC4)CC3)coc12)c1c(Cl)ccc(F)c1Cl [Example 29, (4-{6-Amino-7-[(R)-1-(2,6-dichloro-3-fluorophenyl)-ethoxy]-furo[3,2-c]pyridin-3-yl}-3,6-dihydro-2H-pyridin-1-yl)-(4-tert-butylpiperazin-1-yl)-methanone] | < 500 nM | < 500 nM |
| C[C@@H](Oc1c(N)ncc2c(-c3cccc(N)c3)coc12)c1c(Cl)ccc(F)c1Cl [Example 66, 3-(3-Aminophenyl)-7-[(R)-1-(2,6-dichloro-3-fluorophenyl)ethoxy]-furo[3,2-c]pyridin-6-ylamine] | 500 to 5000 nM | 500 to 5000 nM |
| C[C@@H](Oc1c(N)ncc2c(-c3ccc(N)nc3)coc12)c1c(Cl)ccc(F)c1Cl [Example 131, 3-(6-Amino-pyridin-3-yl)-7-[(R)-(2,6-dichloro-3-fluorophenyl)ethoxy]furo[3,2-c]pyridin-6-ylamine] | 500 to 5000 nM | < 500 nM |
| C[C@@H](Oc1c(N)ncc2c(C3=CCN(Cc4ccccc4)CC3)coc12)c1c(Cl)ccc(F)c1Cl [Example 39, 3-(1-Benzyl-1,2,3,6-tetrahydropyridin-4-yl)-7-[(R)-1-(2,6-dichloro-3-fluorophenyl)-ethoxy]-furo[3,2-c]pyridin-6-ylamine] | 500 to 5000 nM | < 500 nM |
| C[C@@H](Oc1c(N)ncc2c(-c3cncnc3)coc12)c1c(Cl)ccc(F)c1Cl [Example 112, 7-[(R)-1-(2,6-Dichloro-3-fluorophenyl)ethoxy]-3-pyrimidin-5-ylfuro[3,2-c]pyridin-6-ylamine] | 500 to 5000 nM | 500 to 5000 nM |
| C[C@@H](Oc1c(N)ncc2c(-c3cscn3)coc12)c1c(Cl)ccc(F)c1Cl [Example 136, 7-[(R)-1-(2,6-Dichloro-3-fluorophenyl)-ethoxy]-3-thiazol-4-ylfuro[3,2-c]pyridin-6-ylamine] | 500 to 5000 nM | 500 to 5000 nM |
| CC(C)CC(Oc1c(N)ncc2c(-c3cnn(C4CCNCC4)c3)coc12)c1c(Cl)ccc(F)c1Cl (stereo not drawn) [Example 366, 7-[1-(2,6-Dichloro-3-fluorophenyl)-3-methylbutoxy]-3-(1-piperidin-4-yl-1H-pyrazol-4-yl)furo[3,2-c]pyridin-6-ylamine] | 500 to 5000 nM | 500 to 5000 nM |
| C[C@@H](Oc1c(N)ncc2c(-c3ccc(C#N)nc3)coc12)c1c(Cl)ccc(F)c1Cl [Example 125, 5-{6-Amino-7-[(R)-1-(2,6-dichloro-3-fluorophenyl)-ethoxy]furo[3,2-c]pyridin-3-yl}pyridine-2-carbonitrile] | 5000 to 20000 nM | 500 to 5000 nM |
| C[C@@H](Oc1c(N)ncc2c(-c3ccc(CN4CCOCC4)cc3)coc12)c1c(Cl)ccc(F)c1Cl [Example 85, 7-[(R)-1-(2,6-Dichloro-3-fluorophenyl)ethoxy]-3-(4-morpholin-4-ylmethylphenyl)furo[3,2-c]pyridin-6-ylamine] | 500 to 5000 nM | 500 to 5000 nM |
| C[C@@H](Oc1c(N)ncc2c(C3=CCN(C(N)=O)CC3)coc12)c1c(Cl)ccc(F)c1Cl [Example 34, 4-{6-Amino-7-[(R)-1-(2,6-dichloro-3-fluorophenyl)ethoxy]-furo[3,2-c]pyridin-3-yl}-3,6-dihydro-2H-pyridine-1-carboxamide] | < 500 nM | < 500 nM |
| C[C@@H](Oc1c(N)ncc2c(-c3ccc(CO)nc3)coc12)c1c(Cl)ccc(F)c1Cl [Example 118, (5-{6-Amino-7-[(R)-1-(2,6-dichloro-3-fluorophenyl)ethoxy]furo[3,2-c]pyridin-3-yl}pyridin-2-yl)methanol] | 500 to 5000 nM | < 500 nM |

The remaining lines, values ahead:

| IC50 [1] | IC50 [2] | Structure (SMILES) |
| --- | --- | --- |
| 500 to 5000 nM | < 500 nM | C[C@@H](Oc1c(N)ncc2c(C3=CCN(C(=O)[C@@H](N)Cc4ccccc4)CC3)coc12)c1c(Cl)ccc(F)c1Cl [Example 256, (2S)-2-Amino-1-[4-{6-amino-7-[(1R)-1-(2,6-dichloro-3-fluoro-phenyl)ethoxy]furo[3,2-c]pyridin-3-yl}-3,6-dihydropyridin-1(2H)-yl]-3-phenylpropan-1-one] |
| 500 to 5000 nM | 500 to 5000 nM | C[C@@H](Oc1c(N)ncc2c(-c3csc(C(=O)N(C)C)c3)coc12)c1c(Cl)ccc(F)c1Cl [Example 317, 4-{6-Amino-7-[(R)-1-(2,6-dichloro-3-fluorophenyl)ethoxy]furo[3,2-c]pyridin-3-yl}thiophene-2-carboxylic acid Dimethylamide] |
| 500 to 5000 nM | 500 to 5000 nM | C[C@@H](Oc1c(N)ncc2c(C3=CCN(C(=O)c4ccn[nH]4)CC3)coc12)c1c(Cl)ccc(F)c1Cl [Example 231, (4-{6-Amino-7-[(R)-1-(2,6-dichloro-3-fluorophenyl)ethoxy]-furo[3,2-c]pyridin-3-yl}-3,6-dihydro-2H-pyridin-1-yl)-(2H-pyrazol-3-yl)-methanone] |
| 500 to 5000 nM | 500 to 5000 nM | CC(Oc1c(N)ncc2c(-c3cnn(C4CCNCC4)c3)coc12)c1ccccc1F (stereo not drawn) [Example 374, 7-[1-(2-Fluorophenyl)ethoxy]-3-(1-piperidin-4-yl-1H-pyrazol-4-yl)furo[3,2-c]pyridin-6-ylamine] |
| 500 to 5000 nM | 500 to 5000 nM | C[C@@H](Oc1c(N)ncc2c(C3=CCN(C4CN(S(C)(=O)=O)C4)CC3)coc12)c1c(Cl)ccc(F)c1Cl [Example 323] |
| 500 to 5000 nM | < 500 nM | CC(Oc1c(N)ncc2c(-c3cnn(C4CCNCC4)c3)coc12)c1c(F)cc(Cl)cc1Cl (stereo not drawn) [Example 372, 7-[1-(2,4-Dichloro-6-fluorophenyl)ethoxy]-3-(1-piperidin-4-yl-1H-pyrazol-4-yl)furo[3,2-c]pyridin-6-ylamine] |
| 500 to 5000 nM | 500 to 5000 nM | C[C@@H](Oc1c(N)ncc2c(C3=CCN(C(=O)N4CC5CC4CO5)CC3)coc12)c1c(Cl)ccc(F)c1Cl (stereo partly drawn) [Example 223, (4-{6-Amino-7-[(R)-1-(2,6-dichloro-3-fluorophenyl)ethoxy]-furo[3,2-c]pyridin-3-yl}-3,6-dihydro-2H-pyridin-1-yl)-(2-oxa-5-azabicyclo[2.2.1]hept-5-yl)methanone] |
| 5000 to 20000 nM | 500 to 5000 nM | C[C@@H](Oc1c(N)ncc2c(-c3cc(C(=O)N4CCN(C)CC4)cs3)coc12)c1c(Cl)ccc(F)c1Cl [Example 332, (5-{6-Amino-7-[(R)-1-(2,6-dichloro-3-fluorophenyl)ethoxy]furo[3,2-c]pyridin-3-yl}thiophen-3-yl)-(4-methylpiperazin-1-yl)methanone] |
| 500 to 5000 nM | < 500 nM | Cc1ccnc(C)c1C(C)Oc1c(N)ncc2c(-c3cnn(C4CCNCC4)c3)coc12 (stereo not drawn) [Example 362, 7-[1-(2,4-Dimethylpyridin-3-yl)ethoxy]-3-(1-piperidin-4-yl-1H-pyrazol-4-yl)furo[3,2-c]pyridin-6-ylamine] |
| 500 to 5000 nM | < 500 nM | CC(Oc1c(N)ncc2c(-c3cnn(C4CCNCC4)c3)coc12)c1cc(F)cc(-c2cnn(C)c2)c1 (stereo not drawn) [Example 452, 7-{1-[3-Fluoro-5-(1-methyl-1H-pyrazol-4-yl)phenyl]ethoxy}-3-(1-piperidin-4-yl-1H-pyrazol-4-yl)furo[3,2-c]pyridin-6-ylamine] |
| 500 to 5000 nM | 500 to 5000 nM | C[C@@H](Oc1c(N)ncc2c(-c3ccc(C(=O)N4CCC(O)C4)cc3)coc12)c1c(Cl)ccc(F)c1Cl (stereo partly drawn) [Example 299] |
| 5000 to 20000 nM | 500 to 5000 nM | C[C@@H](Oc1c(N)ncc2c(C(=O)O)coc12)c1c(Cl)ccc(F)c1Cl [Example 176, 6-Amino-7-[(R)-1-(2,6-dichloro-3-fluorophenyl)ethoxy]furo[3,2-c]pyridine-3-carboxylic acid] |
| 500 to 5000 nM | < 500 nM | CC(Oc1c(N)ncc2c(-c3cnn(C4CCNCC4)c3)coc12)c1cccc(Br)c1 (stereo not drawn) [Example 387, 7-[1-(3-Bromophenyl)ethoxy]-3-(1-piperidin-4-yl-1H-pyrazol-4-yl)furo[3,2-c]pyridin-6-ylamine] |
| 500 to 5000 nM | 500 to 5000 nM | C[C@@H](Oc1c(N)ncc2c(C3=CCN(C(=O)c4ncc[nH]4)CC3)coc12)c1c(Cl)ccc(F)c1Cl [Example 232, (4-{6-Amino-7-[(R)-1-(2,6-dichloro-3-fluorophenyl)ethoxy]-furo[3,2-c]pyridin-3-yl}-3,6-dihydro-2H-pyridin-1-yl)-(1H-imidazol-2-yl)-methanone] |
| > 20000 nM | 500 to 5000 nM | C[C@H](Oc1c(N)ncc2ccoc12)c1nnc2ccc(-c3cnn(C)c3)nn12 [Example 474, 7-{(1S)-1-[6-(1-methyl-1H-pyrazol-4-yl) [1,2,4]triazolo[4,3-b]pyridazin-3-yl]ethoxy}furo[3,2-c]pyridin-6-amine] |
